pKi: −log10 of the molar value.
Target: T1, Human NPY Y5 receptors (Homo sapiens, UniProt Q15761)
T1 construct: expressed in transfected cells; host or cells: CHO cells (membrane protein)
T1 sequence (Q15761 1-445): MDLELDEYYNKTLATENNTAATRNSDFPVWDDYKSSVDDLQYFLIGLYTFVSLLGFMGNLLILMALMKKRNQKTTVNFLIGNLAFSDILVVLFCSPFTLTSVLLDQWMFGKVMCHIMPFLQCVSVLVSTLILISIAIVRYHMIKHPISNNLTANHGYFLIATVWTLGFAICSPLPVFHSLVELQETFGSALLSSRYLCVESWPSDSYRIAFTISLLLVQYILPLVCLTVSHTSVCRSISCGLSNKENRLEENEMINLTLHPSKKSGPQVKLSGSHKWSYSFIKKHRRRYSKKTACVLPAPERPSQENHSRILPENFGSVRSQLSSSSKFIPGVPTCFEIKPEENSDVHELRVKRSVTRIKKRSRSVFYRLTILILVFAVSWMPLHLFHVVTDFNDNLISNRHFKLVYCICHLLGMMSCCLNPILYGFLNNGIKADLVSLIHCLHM
Assay: NPY Receptor Binding Assay
Details: binding affinity at the human neuropeptide Y Y5 receptor subtype (hY5), expressed in CHO cells, 125I-peptide YY
Protocol: NPY Receptor Binding Assay
Human NPY Y5 receptors were expressed in CHO cells. Binding assays were performed in 50 mM HEPES, pH 7.2, 2.5 mM CaCl2, 1 mM MgCl2 and 0.1% BSA containing 5–10 μg of membrane protein and 0.1 nM […] in a total volume of 200 μl. Non-specific binding was determined in the presence of 1 μM NPY. The reaction mixtures were incubated for 90 minutes at room temperature then filtered through Millipore MAFC glass fiber filter plates which had been pre-soaked in 0.5% polyethleneimine. The filters were washed with phosphate-buffered saline, and radioactivity was measured in a Packard TopCount scintillation counter.

| SMILES | pKi |
| --- | --- |
| CN(C(=O)Nc1cnn(-c2cc(F)cc(F)c2)c1)C1CCN(S(C)(=O)=O)CC1 | 8.62 |
| CN(C(=O)Nc1cnn(-c2cc(F)cc(F)c2)c1)C1CCN(C(=O)OC(C)(C)C)CC1 | 8.74 |
| CN(C(=O)Nc1cnn(-c2cc(F)cc(F)c2)c1)C1CCNCC1 | 6.56 |
| CC(=O)N1CCC(N(C)C(=O)Nc2cnn(-c3cc(F)cc(F)c3)c2)CC1 | 8.80 |
| CCC(=O)N1CCC(N(C)C(=O)Nc2cnn(-c3cc(F)cc(F)c3)c2)CC1 | 9.02 |
| CN(C(=O)Nc1cnn(-c2cc(F)cc(F)c2)c1)C1CCN(C(=O)C2CC2)CC1 | 8.92 |
| CC(C)C(=O)N1CCC(N(C)C(=O)Nc2cnn(-c3cc(F)cc(F)c3)c2)CC1 | 9.15 |
| CCS(=O)(=O)N1CCC(N(C)C(=O)Nc2cnn(-c3cc(F)cc(F)c3)c2)CC1 | 9.05 |
| CC(C)S(=O)(=O)N1CCC(N(C)C(=O)Nc2cnn(-c3cc(F)cc(F)c3)c2)CC1 | 8.77 |

Source: US7157472B2, “Neuropeptide Y Y5 receptor antagonists” (Schering Corporation, priority 2002, dated 2007)
